Source: patent publication US20190134148A1, “COMBINATION THERAPY” (BIG DNA LTD, priority 2016, published 2019)
Read-outs that look alike come from different tables or passages of the source.

Experiments:
[1] = tested on: NCI H-929 multiple myeloma cell line; test: NCI H-929 sub cutaneous tumour study with varied BTZ dose, TGI and TTE (Example 8); assay type: in vivo, mice; settings: day 18
Procedure: Cilengitide or vehicle was supplied as daily intra-peritoneal injection (45 mg/kg). […] After this point, dosing was continued in groups receiving 0.2 mg/kg and 0.5 mg/kg BTZ t cilengitide until day 31 to allow comparative tumour growth delay (i.e. difference in time to endpoint (TTE). […] TTE was calculated as TTE=[log(endpoint volume)-b]/m where TTE is expressed in days, endpoint volume is expressed in mm^3, b is the intercept, and m is the slope of the line obtained by linear regression of a log-transformed tumour growth data set. TTE values were plotted in Kaplan-Meier diagrams (FIGS. 9 and 10).

[2] = tested on: T47D breast cancer cell line; test: Sulforhodamine B viability assay and isobologram / combination index in T47D cells; assay type: cell-based; settings: for CI: single agent
Procedure: For assessment of combined BTZ and cilengitide toxicity, T47D cells were seeded at a density of 7500 cells/cm^2 in 96-well cell culture plates and incubated for 24 hours. Cilengitide was diluted to 20 μM in complete DMEM, then 3 serial tenfold dilutions of this were performed in complete DMEM (2 μM, 200 nM and 20 nM). Complete DMEM containing no cilengitide was provided for negative controls.
These dilutions (or DMSO for wells containing no BTZ) were added to aliquots of complete DMEM containing 0-20 μM cilengitide for a 1/150 dilution. Aliquots (0.1 mL) of each mixture were added to wells already containing 0.1 mL medium (in duplicate), resulting in a matrix of cilengitide (10 nM-10 μM) and/or BTZ (1 nM-10 μM) or neither agent (diluent only).
OD570nm readings were divided by those resulting from negative control (diluent only) wells and expressed as a percentage. Three independent replicates of this experiment were carried out.
The isoboles were obtained similarly by extrapolation of points representing 50% reduction in viability from line graphs of % viability versus concentration of one agent at variable concentration with the other agent supplied at a fixed concentration.
The position of the points on this graph (FIG. 6) indicates whether a combined effect is synergistic (falling below/left of the line) antagonistic (falling above/right of this line) or additive (on or close to this line).
CA,x and CB,x are the concentrations of drug A and drug B used in combination to achieve x % drug effect. ICx,A and ICx,B are the concentrations for single agents to achieve the same effect.

[3] = Sprague-Dawley rats; AUC intravenous versus intra-gastric administration; cited from earlier work
[4] = tested on: WSU-DLCL2 lymphoma xenograft; settings: at MTD; cited from earlier work
[5] = tested on: NCI H-929 human multiple myeloma cells; test: NCI-H929 sub-cutaneous xenograft mouse tumor model, 'high' bortezomib dose (Example 7); assay type: in vivo, SCID mouse; settings: for Complete response / No response / Partial response: mice of N = 10; for Complete response / No response / Partial response / Total RR %: bortezomib 1 mg/kg IV biweekly, cilengitide 45 mg/kg IP QD; for Total RR %: sum of PR+CR
Text: This was then continued until Day 21.
Partial response (PR) is defined as the first measurement of the tumor volume being 50% or less of its Day 1 volume for three consecutive measurements during the course of the study, and equal to or greater than 13.5 mm^3 for one or more of these three measurements. In a complete response (CR), the tumor volume was less than 13.5 mm^3 for three consecutive measurements during the course of the study. Total response rate (RR) is the sum of PR+CR. Treatment began on day 1 and was stopped on Day 21.

20S proteasome = 20S proteasome (Homo sapiens, UniProt P20618+P28074); settings: cited from earlier work
[6] = tested on: CWR22 human prostate cancer xenografts; settings: cited from earlier work
[7] = CD-1 mice; 4 mg/kg PO versus 0.8 mg/kg intravenously; cited from earlier work
HEK293 cells = test: Sulforhodamine B relative cell growth assay in HEK293 cells; assay type: cell-based; settings: HEK293 (αvβ3+ve); 10 μM proteasome inhibitor without cRGDfK
Procedure: Established methodology was used to prepare 80-100% confluent monolayers of HEK293 cells in T75 flasks. Cells were cultured in DMEM (Lonza) supplemented with 10% FBS (Gibco), 2 mM L-glutamine, 100 U/mL penicillin and 100 μg/mL streptomycin (“complete DMEM”).
The cells in T75 flasks were trypsinised and resuspended in complete DMEM. The cells were counted using a Neubauer chamber and seeded at approximate density of 3×10^4 cells/cm^2 and 7500 cells/cm^2 in 96 well flat bottomed tissue culture plates (Corning) 0.1 mL cell suspension per well. Cells were incubated for 24 hours at 37° C./5% CO2 (humidified). […]
Briefly: medium was removed from wells and replaced with an equal volume of PBS. […] Optical density (OD570nm) was determined using an ELISA plate reader (Dynex MRX, Dynex Technologies).
In total, 5 replicates of the experiment were carried out. Cells treated with peptide/BTZ mixtures or control mixtures were incubated for 24 hours at 37° C./5% CO2 (humidified) then analysed by sulforhodamine B assay.
The average of the background measurements (i.e. no cells, medium only) was subtracted from each reading. ‘Ti’ is OD570nm following 24 hours treatment with drugs. […]
Using these equations, control cell growth is assigned a relative cell growth value of 100% and all cell growth values are calculated relative to this figure. […]

[8] = phase II trials; heavily pretreated patient population; cited from earlier work
Cos7 cells = test: Sulforhodamine B relative cell growth assay in Cos7 cells; assay type: cell-based; settings: COS-7 (αvβ3−ve); 10 μM proteasome inhibitor without cRGDfK
[9] = tested on: chymotrypsin-like activity of the proteasome; settings: highest dose used in the phase I trial; cited from earlier work
[10] = Cilengitide oral bioavailability, plasma level by LC-MS after intra-gastric gavage; assay type: in vivo; settings: mice, 100 mg/kg intra-gastric gavage
Procedure: 3 mice were dosed with cilengitide at 100 mg/kg by intra-gastric gavage. Bleeds (0.1 mL) were taken before dosing and 5 and 15 minutes post dosing. Terminal bleeds (orbital vein) were taken at 60 minutes post-dose. All bleeds were transferred into Li-heparin tubes and plasma prepared by centrifugation. Aliquots of plasma (pooled per timepoint) were processed for analysis by addition of 3 volumes of acetonitrile, centrifuged for 1 minute at 13,000 rpm, then the supernatant recovered.
Samples were analysed by LC-MS alongside standards containing known amounts of cilengitide (1 ng/mL-1000 ng/mL). Cilengitide was undetectable in pre-dose, 5 minute and 15 minute time points. At the 60 minute time point: cilengitide levels were estimated to be 94.2 ng/mL.

PHTX22L xenografts = settings: MTD level treatment; cited from earlier work
DP54-Luc model = settings: in vivo; cited from earlier work
chymotrypsin-like sites = chymotrypsin-like sites (Homo sapiens, UniProt P28074); settings: cited from earlier work
[11] = By Day 42, treatment stopped on Day 21, N = 10
[12] = at maximum tolerated dose (MTD)

chymotrypsin-like sites, sequence (P28074 60-263): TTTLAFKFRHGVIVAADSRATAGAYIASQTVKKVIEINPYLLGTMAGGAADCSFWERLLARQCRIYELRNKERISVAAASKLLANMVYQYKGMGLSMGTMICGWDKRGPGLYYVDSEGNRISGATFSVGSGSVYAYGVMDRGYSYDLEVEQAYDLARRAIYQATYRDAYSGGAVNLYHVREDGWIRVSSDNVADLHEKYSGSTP

SMILES: CC(C)C[C@H](NC(=O)[C@H](Cc1ccccc1)NC(=O)c1cnccn1)B(O)O [Bortezomib]
- Tumour growth inhibition (TGI) ([1]; 0.5 mg/kg BTZ and below, without cilengitide): virtually ineffective
- Tumour growth inhibition (TGI) ([1]; BTZ doses of 0.7 mg/kg and greater, biweekly intravenous): almost complete TGI
- CI [2]: 1.00
- calculated bioavailability [3]: 46%
- anti-tumoral activity [4]: ineffective
- mice showing a complete response ([5]; By Day 8, bortezomib 1 mg/kg): 10%
- animals remained 'cured' (tumours did not regrow) ([5]; By Day 42, treatment stopped on Day 21): 60%
- animals that reached end point (tumour volume>2000 mm^3) [5, 11]: 1
- animals that relapsed [5, 11]: 3 animals
- Complete response ([5]; Day 1): 0
- No response ([5]; Day 1): 10
- Partial response ([5]; Day 1): 0
- Total RR % ([5]; Day 1, N = 10): 0%
- Complete response ([5]; Day 4): 0
- No response ([5]; Day 4): 7
- Partial response ([5]; Day 4): 3
- Total RR % ([5]; Day 4, N = 10): 30%
- Total RR % ([5]; Day 4, N = 10, listed as bortezomib): 30%
- Complete response ([5]; Day 8): 1
- No response ([5]; Day 8): 3
- Partial response ([5]; Day 8): 6
- Total RR % ([5]; Day 8, N = 10): 70%
- Complete response ([5]; Day 12): 4
- No response ([5]; Day 12): 2
- Partial response ([5]; Day 12): 4
- Complete response ([5]; Day 15): 4
- No response ([5]; Day 15): 2
- Partial response ([5]; Day 15): 4
- Complete response ([5]; Day 18): 4
- No response ([5]; Day 18): 1
- Partial response ([5]; Day 18): 5
- Total RR % ([5]; Day 18, N = 10): 90%
- Complete response ([5]; Day 21): 5
- No response ([5]; Day 21): 1
- Partial response ([5]; Day 21): 4
- Total RR % ([5]; Day 21, N = 10): 90%
- Total RR % ([5]; Day 21, N = 10, listed as bortezomib): 90%
- mice that failed to respond at all ([5]; last treatment day (Day 21), bortezomib 1 mg/kg): 10%
- proteasome dissociation half-life (20S proteasome): approximately 110 minutes
- anti-tumoral activity [6, 12]: effective anti-tumoral activity
- estimated oral bioavailability [7]: approximately 11%

SMILES: CC(C)C[C@H](NC(=O)[C@H](CCc1ccccc1)NC(=O)CN1CCOCC1)C(=O)N[C@@H](Cc1ccccc1)C(=O)N[C@@H](CC(C)C)C(=O)[C@@]1(C)CO1 [Carfilzomib]
- Growth relative to untreated control cells (HEK293 cells): greater activity than ixazomib, delanzomib and oprozomib
- partial response rate [8]: 24%
- Growth relative to untreated control cells (Cos7 cells): greater activity than ixazomib, delanzomib and oprozomib
- inhibition of the chymotrypsin-like activity of the proteasome in blood of patients [9]: 88%

SMILES: CC(C)[C@H]1C(=O)N[C@@H](CCCN=C(N)N)C(=O)NCC(=O)N[C@@H](CC(=O)O)C(=O)N[C@H](Cc2ccccc2)C(=O)N1C [Cilengitide]
- IC50 ([2]; read-out: Cilengitide (M), concentration resulting in 50% reduction in viability as single agent (IC50), bortezomib 0): 6.2e-06 M
- CI [2]: 1.00
- Complete response ([5]; Day 1): 0
- No response ([5]; Day 1): 10
- Partial response ([5]; Day 1): 0
- Total RR % ([5]; Day 1, N = 10): 0%
- Complete response ([5]; Day 4): 0
- No response ([5]; Day 4): 10
- Partial response ([5]; Day 4): 0
- Total RR % ([5]; Day 4, N = 10): 0%
- Complete response ([5]; Day 8): 0
- No response ([5]; Day 8): 10
- Partial response ([5]; Day 8): 0
- Total RR % ([5]; Day 8, N = 10): 0%
- Complete response ([5]; Day 12): 0
- No response ([5]; Day 12): 10
- Partial response ([5]; Day 12): 0
- Total RR % ([5]; Day 12, N = 10): 0%
- Complete response ([5]; Day 15): 0
- No response ([5]; Day 15): 10
- Partial response ([5]; Day 15): 0
- Total RR % ([5]; Day 15, N = 10): 0%
- Complete response ([5]; Day 18): 0
- No response ([5]; Day 18): 10
- Partial response ([5]; Day 18): 0
- Total RR % ([5]; Day 18, N = 10): 0%
- Complete response ([5]; Day 21): 0
- No response ([5]; Day 21): 10
- Partial response ([5]; Day 21): 0
- Total RR % ([5]; Day 21, N = 10): 0%
- cilengitide levels in plasma ([10]; 5 minute time point): undetectable
- cilengitide levels in plasma ([10]; 15 minute time point): undetectable
- level at 1 h ([10]; mouse, plasma, po, 60 minute time point, read-out: cilengitide levels in plasma): 94.2 ng/mL

SMILES: CC(C)C[C@H](NC(=O)CNC(=O)c1cc(Cl)ccc1Cl)B(O)O [Ixazomib, [(1R)-1-[[2-[(2,5-dichlorobenzoyl)amino]acetyl]amino]-3-methyl-butyl]boronic acid]
- anti-tumoral effect (PHTX22L xenografts): only ixazomib was found to exhibit an anti-tumoral effect
- anti-tumoral activity [4]: significant anti-tumoral activity
- alleviation of osteolytic bone disease (DP54-Luc model): effective
- proteasome dissociation half-life (20S proteasome): approximately 18 minutes
- release from proteasome, fold faster than bortezomib (20S proteasome): approximately 6 fold
- anti-tumoral activity ([6]; at half the MTD): more effective than bortezomib
- anti-tumoral activity [6, 12]: effective anti-tumoral activity

SMILES: C[C@@]12OC(=O)[C@]1([C@@H](O)[C@@H]1C=CCCC1)NC(=O)[C@@H]2CCCl [Marizomib]
- inhibition of the chymotrypsin-like sites (chymotrypsin-like sites): up to 100%
